Laboratory results as given in paper PMC12732581, “Molecular and System-Level Characterization of MMP12 Suppression in Lung Cancer: A Combined Bioinformatics and Molecular Approach” (International Journal of Molecular Sciences, 2025).

Columns and labels:
[1] = biological target: T1, recombinant human MMP12 (Homo sapiens, UniProt P39900); experiment: MMP12 colorimetric thiopeptide enzyme inhibition assay (Abcam); type: biochemical
T1 construct: purchased Abcam
Description: The enzyme inhibition potential of synthesized p-chlorocinnamic acid derivatives against MMP12 was assessed using the Abcam colorimetric assay.
The inhibitory activity of the newly synthesized compounds against MMP12 was assessed using a previously established enzymatic assay protocol, as described in our earlier study. In brief, we conducted a colorimetric thiopeptide-based inhibition assay for MMP12 using recombinant human MMP12 and the reference inhibitor NNGH as a positive control. The IC50 values were calculated using GraphPad Prism version 9 (GraphPad Software, San Diego, CA, USA).

[2] = tested on: A549 lung cancer cells; experiment: MTT cell viability assay, A549; type: cell-based, human
Description: To evaluate the impact of MMP12 inhibitors on lung cancer cell lines, an MTT assay was performed on A549, H1299, and H661 cells exposed to varying concentrations of inhibitors over 48, 72, and 96 h.
The lung cancer cell lines referenced as A549, H1299, and H661 were acquired from the American Type Culture Collection (ATCC, Manassas, VA, USA). Fibroblast cells of dermal origin were used as a model for normal human tissue, which were also purchased from ATCC. A549, H1299, and H661 cells were maintained in the RPMI culture medium, while fibroblast cells were maintained in the DMEM high glucose culture medium. Both RPMI and DMEM culture media were supplemented with 100 U/mL penicillin, 0.1 mg/mL streptomycin to prevent bacterial growth, 10% FBS to promote cell growth, and 2 mM L-glutamine as an energy source.
The 3-(4,5-dimethylthiazol-2-yl)-2,5-diphenyltetrazolium bromide (MTT) assay was employed to evaluate cell proliferation as previously noted. All experiments were performed in triplicate wells and were repeated at least twice independently. The percentage of the relative cell viability of treated cells versus the untreated cells (negative controls) was calculated using the following formula in Equation (1) (cell viability calculation):(1) Cell viability%=optical density of treated cells/optical density of untreated cells×100

[3] = tested on: H1299 cells; experiment: Wound healing migration assay; type: cell-based, human; conditions: for Wound closure %: untreated 99; for Wound migration rate (px/h): untreated 16,702
Description: The wound healing migration assay was conducted using H1299 cells, following an established protocol. […] Images were captured at 0 and 48 h, and wound closure was quantified using ImageJ. Digital images were analyzed for wound area using the ImageJ software version 1.53e.

[4] = tested on: CD44 mRNA in H1299 cells; experiment: qPCR gene expression, CD44; type: cell-based, human; conditions: H1299, 0.1 IC50, 72 h
Description: (§1) Quantitative real-time PCR (qPCR) was used to assess the impact of MMP12 inhibition in H1299 lung cancer cells.
(§2) Quantitative real-time PCR (qPCR) was conducted as previously described. Lung cancer cell lines (A549, H1299, H661) were seeded at approximately 4 × 10^5 cells per T-25 flask and incubated for 24 h. […] Total RNA was extracted, reverse-transcribed into cDNA, and qPCR was performed using SYBR Green on an Applied Biosystems platform, Foster City, CA, USA. Gene expression was normalized to GAPDH, and the fold-change was calculated using the 2^−ΔΔCt method. The basal expression of MMP12 in untreated A549, H1299, and H661 cells was assessed using the 2^−ΔCt method. Primer sequences and annealing temperatures (Ta) are listed in Table S2 (Supplementary Materials).

[5] = tested on: NFKBIA mRNA in H1299 cells; experiment: qPCR gene expression, NFKBIA; type: cell-based, human; conditions: H1299, 0.1 IC50, 72 h
Description: as §1, §2

[6] = tested on: PSME3 mRNA in H1299 cells; experiment: qPCR gene expression, PSME3; type: cell-based, human; conditions: H1299, 0.1 IC50, 72 h
Description: as §1, §2

[7] = tested on: SPARCL1 mRNA in H1299 cells; experiment: qPCR gene expression, SPARCL1; type: cell-based, human; conditions: H1299, 0.1 IC50, 72 h
Description: as §1, §2

[8] = tested on: ADAM9 mRNA in H1299 cells; experiment: qPCR gene expression, ADAM9; type: cell-based, human; conditions: H1299, 0.1 IC50, 72 h
Description: as §1, §2

[9] = tested on: APOA1 mRNA in H1299 cells; experiment: qPCR gene expression, APOA1; type: cell-based, human; conditions: H1299, 0.1 IC50, 72 h
Description: as §1, §2

[10] = tested on: CCL15 mRNA in H1299 cells; experiment: qPCR gene expression, CCL15; type: cell-based, human; conditions: H1299, 0.1 IC50, 72 h
Description: as §1, §2

[11] = tested on: MMP12 mRNA in H1299 cells; experiment: qPCR gene expression, MMP12; type: cell-based, human; conditions: H1299, 0.1 IC50, 72 h
Description: as §1, §2

[12] = tested on: MMP12 protein in H1299 cells; experiment: Western blot of MMP12 protein expression; type: cell-based, human; conditions: for Normalized MMP-12 (to GAPDH), Western blot: untreated H1299 0.9696
Description: Western blotting was conducted to assess the protein expression of MMP12 in lung cancer cell lines (A549, H1299, and H661), following the protocol established earlier. In summary, cells were seeded and incubated for 24 h. […] Total protein lysates were prepared, separated by SDS-PAGE, and transferred to nitrocellulose membranes. These membranes were then probed with primary antibodies against MMP12 and GAPDH. The protein bands were visualized using an HRP substrate and analyzed for relative expression.

[13] = tested on: H1299 cells; experiment: Cell cycle analysis (PI staining, flow cytometry); type: cell-based, human; conditions: H1299, ½ IC50, 48 h
Description: Cell cycle distribution was evaluated in H1299 cells using a modified version of the method described. […] After the treatment period, the cells were fixed with ethanol, stained with a propidium iodide/RNase A solution, and analyzed using a BD FACSCanto II flow cytometer. The data were processed with BD FACSDiva software version 8 (BD Biosciences, San Jose, CA, USA).

[14] = tested on: H1299 cells; conditions: human, 72 h
Description: (§3) Apoptosis was assessed using Annexin-V/PI staining, following the method described earlier with minor modifications [84]. […] After the treatment, the cells were collected and stained with Annexin-V-FITC and propidium iodide. The stained cells were then analyzed using a BD FACSCanto II flow cytometer (Becton, Dickinson and Company (BD), Franklin Lakes, NJ, USA) and FACSDiva software (Becton, Dickinson and Company (BD), Franklin Lakes, NJ, USA).

[15] = tested on: H1299 cells; experiment: Annexin V-FITC/PI apoptosis assay (flow cytometry); conditions: H1299, double IC50, 72 h
Description: as §3

[16] = relative to untreated, GAPDH normalized

T1 sequence (P39900 106-470): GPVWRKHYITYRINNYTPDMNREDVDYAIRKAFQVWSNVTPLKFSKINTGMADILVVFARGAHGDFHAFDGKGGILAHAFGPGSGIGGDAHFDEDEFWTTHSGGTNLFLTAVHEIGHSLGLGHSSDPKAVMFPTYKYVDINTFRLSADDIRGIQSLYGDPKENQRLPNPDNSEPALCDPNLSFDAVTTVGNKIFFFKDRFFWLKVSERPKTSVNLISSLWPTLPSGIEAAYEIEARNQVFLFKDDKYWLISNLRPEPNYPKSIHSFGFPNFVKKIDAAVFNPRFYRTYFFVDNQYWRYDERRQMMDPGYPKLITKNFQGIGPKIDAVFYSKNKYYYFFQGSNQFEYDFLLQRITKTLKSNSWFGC

O=C(/C=C/c1ccc(Cl)cc1)Nc1ccc(C(=O)c2ccccc2)cc1 [Compound C1]
inhibition at 50 µM [1]: 32.9% | IC50 ([2]; A549, 72 h): 118 µM | IC50 ([2]; Homo sapiens, A549, 48 h): 198 µM | IC50 ([2]; Homo sapiens, A549, 72 h): 119 µM | IC50 ([2]; Homo sapiens, A549, 96 h): 82 µM | Wound closure % ([3]; H1299, 48 h, at IC50 concentration): 10% | Wound closure % ([3]; H1299, 48 h, at ¼ IC50): 72% | inhibition of wound closure ([3]; H1299, 48 h, at ½ IC50 (C1 45.9, C7 24.1, C9 21.7, C10 32.7, C15 72.6 µM)): ~50% | Wound closure % ([3]; H1299, 48 h, at ½ IC50): 50% | Wound migration rate (px/h) ([3]; H1299, at IC50 concentration): 1,640.73 px/h | Wound migration rate (px/h) ([3]; H1299, at ¼ IC50): 11,751 px/h | Wound migration rate (px/h) ([3]; H1299, at ½ IC50): 9,225 px/h | CD44 Fold Change (2^−ΔΔCt) [4, 16]: 0.48 | CD44 % Change ([4]; vs untreated control): −52% | NFKBIA Direction [5]: Up | NFKBIA Fold Change (2^−ΔΔCt) [5, 16]: 24.33 | NFKBIA % Change ([5]; vs untreated control): +2333% | PSME3 Fold Change (2^−ΔΔCt) [6, 16]: 0.54 | PSME3 % Change ([6]; vs untreated control): −46% | SPARCL1 Fold Change (2^−ΔΔCt) [7, 16]: 0.49 | SPARCL1 % Change ([7]; vs untreated control): −51% | ADAM9 Direction [8]: Up | ADAM9 Fold Change (2^−ΔΔCt) [8, 16]: 123.60 | ADAM9 % Change ([8]; vs untreated control): +12,260% | APOA1 Fold Change (2^−ΔΔCt) [9, 16]: 0.79 | APOA1 % Change ([9]; vs untreated control): −21% | CCL15 Fold Change (2^−ΔΔCt) [10, 16]: 0.03 | CCL15 % Change ([10]; vs untreated control): −97% | MMP12 Fold Change (2^−ΔΔCt) [11, 16]: 0.78 | MMP12 % Change ([11]; vs untreated control): −22% | MMP12 protein suppression (Western blot), in words ([12]; H1299, 0.1, ¼ and ½ IC50): less effective | Normalized MMP-12 (to GAPDH), Western blot ([12]; H1299, 0.1 IC50, 72 h): 0.6296 | Normalized MMP-12 (to GAPDH), Western blot ([12]; H1299, ¼ IC50, 72 h): 0.3747 | Normalized MMP-12 (to GAPDH), Western blot ([12]; H1299, ½ IC50, 72 h): 0.1966 | cells in G2/M phase [13]: 9.1% | cells in S phase [13]: 36.5% | cells in G0/G1 phase ([13]; untreated 62.5%): 47.4% | Viable (%) (Annexin−/PI−, Q1-LL) [14]: 78.6% | Necrosis (%) (Annexin−/PI+, Q1-UL) ([15]; control 0.7): 1.9% | Late Apoptosis (%) (Annexin+/PI+, Q1-UR) ([15]; control 2.6): 2.9% | Early Apoptosis (%) (Annexin+/PI−, Q1-LR) ([15]; control 8.7): 16.6% | Total Apoptosis (%) ([15]; control 11.3): 19.5%
